Results as given in PubChem BioAssay AID248 (DTP/NCI, 2004).
Values joined by “and” are separate entries in the source; they are usually repeats but may differ in a detail not shown here. Equal entries are not always repeated. Toxic doses and inconclusive results are not listed. No stated cut-off is given here; in the data, active means T/C of 150% or more; inactive means T/C below 125%.

Tested on: L1210 leukemia ip in BDF1 mice, survival T/C
Test: NCI In Vivo Anticancer Drug Screen. Data for tumor model L1210 Leukemia (intraperitoneal) in B6D2F1 (BDF1) mice
Settings: endpoint: mean survival time, higher = longer survival
Outline: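 Value reflects the ratio of survival in compound-treated mice to survival in vehicle-treated controls, with both groups carrying the same transplanted tumor.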

[1] = dose: 100.0 mg/kg/injection, schedule: Q04DX003 (ip), vehicle: saline
[2] = dose: 200.0 mg/kg/injection, schedule: Q04DX003 (ip), vehicle: saline
[3] = dose: 400.0 mg/kg/injection, schedule: Q04DX003 (ip), vehicle: saline
[4] = dose: 100.0 mg/kg/injection, schedule: Q01DX001 (ip), vehicle: carboxymethylcellulose (CMC)
[5] = dose: 200.0 mg/kg/injection, schedule: Q01DX001 (ip), vehicle: carboxymethylcellulose (CMC)
[6] = dose: 400.0 mg/kg/injection, schedule: Q01DX001 (ip), vehicle: carboxymethylcellulose (CMC)
[7] = dose: 100.0 mg/kg/injection, schedule: Q04DX002 (ip), vehicle: Klucel (hydroxypropylcellulose) (HPC)
[8] = dose: 200.0 mg/kg/injection, schedule: Q04DX002 (ip), vehicle: Klucel (hydroxypropylcellulose) (HPC)
[9] = dose: 100.0 mg/kg/injection, schedule: Q04DX003 (ip), vehicle: saline with Tween-80
[10] = dose: 200.0 mg/kg/injection, schedule: Q04DX003 (ip), vehicle: saline with Tween-80
[11] = dose: 400.0 mg/kg/injection, schedule: Q04DX003 (ip), vehicle: saline with Tween-80
[12] = dose: 100.0 mg/kg/injection, schedule: Q01DX001 (ip), vehicle: saline
[13] = dose: 200.0 mg/kg/injection, schedule: Q01DX001 (ip), vehicle: saline
[14] = dose: 400.0 mg/kg/injection, schedule: Q01DX001 (ip), vehicle: saline
[15] = dose: 50.0 mg/kg/injection, schedule: Q01DX009 (ip), vehicle: saline with Tween-80
[16] = dose: 100.0 mg/kg/injection, schedule: Q01DX009 (ip), vehicle: saline with Tween-80
[17] = dose: 200.0 mg/kg/injection, schedule: Q01DX009 (ip), vehicle: saline with Tween-80
[18] = dose: 25.0 mg/kg/injection, schedule: Q04DX003 (ip), vehicle: saline
[19] = dose: 50.0 mg/kg/injection, schedule: Q04DX003 (ip), vehicle: saline
[20] = dose: 100.0 mg/kg/injection, schedule: Q01DX009 (ip), vehicle: saline
[21] = dose: 100.0 mg/kg/injection, schedule: Q04DX003 (ip), vehicle: other
[22] = dose: 200.0 mg/kg/injection, schedule: Q04DX003 (ip), vehicle: other

Measured: T/C

CC(=O)OCc1ccc[nH]c1=O
inactive: [1] 104 % of control | [2] 98 % of control | [3] 104 % of control

CC(C)c1ccc(/C=C/C(=O)O)cc1
inactive: dose: 50.0 mg/kg/injection, schedule: Q01DX001 (ip), vehicle: carboxymethylcellulose (CMC) 108 % of control | [4] 97 % of control | [5] 92 % of control | [6] 101 % of control

CCN(CC)Cc1ccccc1COC(=O)c1cccc(Cl)c1
inactive: [7] 103 % of control | [8] 103 % of control | dose: 400.0 mg/kg/injection, schedule: Q04DX002 (ip), vehicle: Klucel (hydroxypropylcellulose) (HPC) 92 % of control

CC(C)(CC(=O)O)SCCSC(C)(C)CC(=O)O
inactive: dose: 100.0 mg/kg/injection, schedule: Q01DX009 (ip), vehicle: Klucel (hydroxypropylcellulose) (HPC) 97 % of control | dose: 200.0 mg/kg/injection, schedule: Q01DX009 (ip), vehicle: Klucel (hydroxypropylcellulose) (HPC) 95 % of control | dose: 400.0 mg/kg/injection, schedule: Q01DX009 (ip), vehicle: Klucel (hydroxypropylcellulose) (HPC) 92 % of control

CCN(CC)c1ccc(N=Nc2cc(Cl)ccc2Cl)c(NC(=O)CCC(=O)O)c1
inactive: [9] 96 % of control | [10] 96 % of control | [11] 95 % of control

Cc1cc([N+](=O)[O-])cc(C)c1N=CN(C)C
inactive: dose: 50.0 mg/kg/injection, schedule: Q01DX001 (ip), vehicle: saline 107 % of control | [12] 105 % of control | [13] 122 % of control | [14] 104 % of control

CN(C)C(=S)Oc1c(Cl)cc(S(=O)(=O)F)cc1Cl
inactive: dose: 12.5 mg/kg/injection, schedule: Q04DX002 (ip), vehicle: Klucel (hydroxypropylcellulose) (HPC) 98 % of control | dose: 25.0 mg/kg/injection, schedule: Q04DX002 (ip), vehicle: Klucel (hydroxypropylcellulose) (HPC) 105 % of control | dose: 50.0 mg/kg/injection, schedule: Q04DX002 (ip), vehicle: Klucel (hydroxypropylcellulose) (HPC) 109 % of control | [7] 94 % of control | [8] 100 % of control

CC(=O)C1=CC[C@H]2[C@@H]3CCC4=CC(=O)CC[C@]4(C)[C@H]3C(=O)C[C@]12C
inactive: dose: 50.0 mg/kg/injection, schedule: Q01DX Z (sc), vehicle: steriod suspending solution 102 % of control | dose: 250.0 mg/kg/injection, schedule: Q01DX Z (sc), vehicle: steriod suspending solution 101 % of control | dose: 500.0 mg/kg/injection, schedule: Q01DX Z (sc), vehicle: steriod suspending solution 102 % of control

CC(=O)OC(C(=O)O)C(OC(C)=O)C(=O)NCCO (stereo unspecified)
inactive: dose: 100.0 mg/kg/injection, schedule: Q01DX001 (ip), vehicle: water 94 % of control | dose: 100.0 mg/kg/injection, schedule: Q04DX003 (ip), vehicle: water 87 % of control | dose: 200.0 mg/kg/injection, schedule: Q01DX001 (ip), vehicle: water 96 % of control | dose: 200.0 mg/kg/injection, schedule: Q04DX003 (ip), vehicle: water 95 % of control | dose: 400.0 mg/kg/injection, schedule: Q01DX001 (ip), vehicle: water 94 % of control | dose: 400.0 mg/kg/injection, schedule: Q04DX003 (ip), vehicle: water 97 % of control

CO[CH2][Pb]([c]1ccccc1)([c]1ccccc1)[c]1ccccc1
inactive: dose: 100.0 mg/kg/injection, schedule: Q04DX002 (ip), vehicle: saline with Tween-80 98 % of control | dose: 200.0 mg/kg/injection, schedule: Q04DX002 (ip), vehicle: saline with Tween-80 94 % of control | dose: 400.0 mg/kg/injection, schedule: Q04DX002 (ip), vehicle: saline with Tween-80 94 % of control

N=C(N=Nc1c(O)[nH]c2ccccc12)N[N+](=O)[O-]
inactive: dose: 6.25 mg/kg/injection, schedule: Q01DX009 (ip), vehicle: Klucel (hydroxypropylcellulose) (HPC) 95 % of control | dose: 12.5 mg/kg/injection, schedule: Q01DX009 (ip), vehicle: Klucel (hydroxypropylcellulose) (HPC) 101 % of control | dose: 12.5 mg/kg/injection, schedule: Q04DX003 (ip), vehicle: Klucel (hydroxypropylcellulose) (HPC) 100 % of control | dose: 25.0 mg/kg/injection, schedule: Q01DX009 (ip), vehicle: Klucel (hydroxypropylcellulose) (HPC) 91 % of control | dose: 25.0 mg/kg/injection, schedule: Q04DX003 (ip), vehicle: Klucel (hydroxypropylcellulose) (HPC) 102 % of control

S=c1nc(COc2ccccc2Cl)[nH][nH]1
inactive: [15] 106 % of control | [16] 100 % of control | [9] 98 % of control | [17] 97 % of control | [10] 102 % of control | dose: 400.0 mg/kg/injection, schedule: Q01DX009 (ip), vehicle: saline with Tween-80 98 % of control | [11] 96 % of control

O=C1NC(=O)C(CO)(CO)N1
inactive: dose: 12.5 mg/kg/injection, schedule: Q04DX003 (ip), vehicle: saline 110 % of control | [18] 97 % of control | [19] 100 % of control | [20] 110 % of control | [1] 121 % of control | dose: 200.0 mg/kg/injection, schedule: Q01DX009 (ip), vehicle: saline 107 % of control | [2] 103 % of control | dose: 400.0 mg/kg/injection, schedule: Q01DX009 (ip), vehicle: saline 113 % of control | [3] 105 % of control

Nc1ncnc2c1cnn2Cc1ccc(Cl)cc1
inactive: dose: 50.0 mg/kg/injection, schedule: Q01DX009 (ip), vehicle: saline 100 % of control | [4] 98 % of control and 103 % of control | [20] 88 % of control | dose: 100.0 mg/kg/injection, schedule: Q04DX003 (ip), vehicle: carboxymethylcellulose (CMC) 97 % of control | [5] 93 % of control and 115 % of control | dose: 200.0 mg/kg/injection, schedule: Q04DX003 (ip), vehicle: carboxymethylcellulose (CMC) 95 % of control | [6] 96 % of control and 121 % of control

COCC(=O)C(C(C)=O)C(c1ccc2c(c1)OCO2)C(C(C)=O)C(=O)COC (stereo unspecified)
inactive: [16] 87 % of control

Fc1cccc2ccc(Br)cc12
inactive: dose: 100.0 mg/kg/injection, schedule: Q04DX003 (ip), vehicle: Klucel (hydroxypropylcellulose) (HPC) 100 % of control | dose: 200.0 mg/kg/injection, schedule: Q04DX003 (ip), vehicle: Klucel (hydroxypropylcellulose) (HPC) 100 % of control | dose: 400.0 mg/kg/injection, schedule: Q04DX003 (ip), vehicle: Klucel (hydroxypropylcellulose) (HPC) 106 % of control

O=[N+]([O-])c1ccc(Cl)c2ccncc12
inactive: [15] 102 % of control | [16] 105 % of control | [17] 105 % of control

CC/C(C)=C\CC/C(C)=C\COc1ccccc1[N+](=O)[O-]
inactive: dose: 100.0 mg/kg/injection, schedule: Q01DX009 (ip), vehicle: carboxymethylcellulose (CMC) 100 % of control | dose: 200.0 mg/kg/injection, schedule: Q01DX009 (ip), vehicle: carboxymethylcellulose (CMC) 100 % of control | dose: 400.0 mg/kg/injection, schedule: Q01DX009 (ip), vehicle: carboxymethylcellulose (CMC) 98 % of control

CCCCNc1ccc([N+](=O)[O-])cc1[N+](=O)[O-]
inactive: dose: 50.0 mg/kg/injection, schedule: Q01DX009 (ip), vehicle: other 104 % of control | dose: 100.0 mg/kg/injection, schedule: Q01DX009 (ip), vehicle: other 93 % of control | [21] 104 % of control | dose: 200.0 mg/kg/injection, schedule: Q01DX009 (ip), vehicle: other 104 % of control | [22] 96 % of control

O=[N+]([O-])c1ccc(-c2cc3ccccc3[n+]([O-])c2)cc1
inactive: [12] 98 % of control | [13] 101 % of control | [14] 101 % of control

CC1=CC=CC(C)(C)CC1=O
inactive: [21] 102 % of control | [22] 91 % of control | dose: 400.0 mg/kg/injection, schedule: Q04DX003 (ip), vehicle: other 95 % of control

CC(C)=CCC/C(C)=C/CN
inactive: [18] 101 % of control | [19] 92 % of control | [20] 95 % of control | [1] 97 % of control

CC(SC1=NCCN1)C(=O)O (stereo unspecified)
inactive: [12] 98 % of control | [13] 94 % of control | [14] 98 % of control

Cc1ccc(S(=O)(=O)Nc2ccccc2O)cc1
inactive: [12] 102 % of control | [13] 98 % of control | [14] 98 % of control
